The nature of the data set: Henry solubility constant Hcp at 310 K (mol/(m3 Pa)). The following applies: reference: Eger et al. (1999).
`CC(O)(C(F)(F)F)C(F)(F)F` [1,1,1,3,3,3-hexafluoro-2-methyl-2-propanol]: the “Henry solubility constant Hcp at 310 K” value is 0.018. `OC(C(F)(F)F)C(F)(F)F` [1,1,1,3,3,3-hexafluoro-2-propanol]: the “Henry solubility constant Hcp at 310 K” value was 0.1. Then `CC(O)C(F)(F)F` (configuration not stated) [1,1,1-trifluoro-2-propanol], with 0.13. Under `CCCCCCO` [1-hexanol] stands 0.35; under `CCCCCCCCO` [1-octanol], 0.27; under `OCCC(F)(F)C(F)(F)C(F)(F)C(F)(F)C(F)(F)C(F)(F)F` [1H,1H,2H,2H-perfluoro-1-octanol], 0.00094. Then `OCC(F)(F)F` [2,2,2-trifluoroethanol], with 0.43; and `OCC(F)(F)C(F)(F)F` [2,2,3,3,3-pentafluoro-1-propanol], with 0.069; and `OCC(F)(F)C(F)(F)C(F)(F)C(F)(F)C(F)(F)F` [2,2,3,3,4,4,5,5,6,6,6-undecafluoro-1-hexanol], with 0.0017.

For `OCC(F)(F)C(F)(F)C(F)(F)C(F)(F)C(F)(F)C(F)(F)F` [2,2,3,3,4,4,5,5,6,6,7,7,7-tridecafluoro-1-heptanol], the “Henry solubility constant Hcp at 310 K” value is 0.0006. Turning to `OCC(F)(F)C(F)(F)C(F)(F)C(F)(F)C(F)(F)C(F)(F)C(F)(F)F` [2,2,3,3,4,4,5,5,6,6,7,7,8,8,8-pentadecafluoro-1-octanol], the “Henry solubility constant Hcp at 310 K” value was determined as 0.00023. Under `OCC(F)(F)C(F)(F)C(F)(F)C(F)(F)C(F)(F)C(F)F` [2,2,3,3,4,4,5,5,6,6,7,7-dodecafluoro-1-heptanol] stands 0.064; under `OCC(F)(F)C(F)(F)C(F)(F)C(F)F` [2,2,3,3,4,4,5,5-octafluoro-1-pentanol], 0.25; under `OCC(F)(F)C(F)F` [2,2,3,3-tetrafluoro-1-propanol], 0.75. On to `OCC(F)(F)C(F)C(F)(F)F` (configuration not stated) [2,2,3,4,4,4-hexafluoro-1-butanol], for which the “Henry solubility constant Hcp at 310 K” value worked out at 0.32.

As for `CC(O)C(F)(F)C(F)(F)C(F)(F)F` (configuration not stated) [3,3,4,4,5,5,5-heptafluoro-2-pentanol], the “Henry solubility constant Hcp at 310 K” value was found to be 0.009. `CCO` [ethanol]: the “Henry solubility constant Hcp at 310 K” value turned out to be 1.

Source of the values: Sander's compilation of Henry's law constants (doi:10.1213/00000539-199904000-00035).
